The values that follow come from patent US4690939A, “Anti-hypertensive agents” (University of Miami, priority 1979, dated 1987).

Non-standard residues stand in square brackets, D forms with d. Residues, ends and D or L forms follow the SMILES beside them. No end group written: not given here. pGlu = O=C1CC[C@@H](C(=O)O)N1

The target in one test is T1, human urinary ACE (Homo sapiens, UniProt P12821).
T1 construct: from tissue; host or cells: human urine
Nature of the test: ACE activity assay (inhibition of benzoyl-GlyHisLeu hydrolysis). Format: biochemical. Particulars: substrate approximately 1/2 Km (Example 1 assay), read-out: I50. How it is done: These factors include the source of enzyme, its purity, the substrate used and its concentration, and the composition of the assay buffer.
ACE activity assay. […] To initiate the assay, 40 μl of enzyme and 10 μl of water or inhibitor dissolved in water were preincubated for five minutes at 37° C. […] To terminate the reaction, 1 ml of 0.1 M HCl was added, following which 1 ml of ethyl acetate was added. The mixture was agitated on a rotary mixer and centrifuged briefly to separate the phases.
For determination of I50 values, enzyme activity in the presence of inhibitor at a series of different concentrations was compared to activity in the absence of inhibitor.

A further test deals with ACE. Particulars: competitive substrates; cited from earlier work.

T1 sequence (P12821 30-1232 limits assumed): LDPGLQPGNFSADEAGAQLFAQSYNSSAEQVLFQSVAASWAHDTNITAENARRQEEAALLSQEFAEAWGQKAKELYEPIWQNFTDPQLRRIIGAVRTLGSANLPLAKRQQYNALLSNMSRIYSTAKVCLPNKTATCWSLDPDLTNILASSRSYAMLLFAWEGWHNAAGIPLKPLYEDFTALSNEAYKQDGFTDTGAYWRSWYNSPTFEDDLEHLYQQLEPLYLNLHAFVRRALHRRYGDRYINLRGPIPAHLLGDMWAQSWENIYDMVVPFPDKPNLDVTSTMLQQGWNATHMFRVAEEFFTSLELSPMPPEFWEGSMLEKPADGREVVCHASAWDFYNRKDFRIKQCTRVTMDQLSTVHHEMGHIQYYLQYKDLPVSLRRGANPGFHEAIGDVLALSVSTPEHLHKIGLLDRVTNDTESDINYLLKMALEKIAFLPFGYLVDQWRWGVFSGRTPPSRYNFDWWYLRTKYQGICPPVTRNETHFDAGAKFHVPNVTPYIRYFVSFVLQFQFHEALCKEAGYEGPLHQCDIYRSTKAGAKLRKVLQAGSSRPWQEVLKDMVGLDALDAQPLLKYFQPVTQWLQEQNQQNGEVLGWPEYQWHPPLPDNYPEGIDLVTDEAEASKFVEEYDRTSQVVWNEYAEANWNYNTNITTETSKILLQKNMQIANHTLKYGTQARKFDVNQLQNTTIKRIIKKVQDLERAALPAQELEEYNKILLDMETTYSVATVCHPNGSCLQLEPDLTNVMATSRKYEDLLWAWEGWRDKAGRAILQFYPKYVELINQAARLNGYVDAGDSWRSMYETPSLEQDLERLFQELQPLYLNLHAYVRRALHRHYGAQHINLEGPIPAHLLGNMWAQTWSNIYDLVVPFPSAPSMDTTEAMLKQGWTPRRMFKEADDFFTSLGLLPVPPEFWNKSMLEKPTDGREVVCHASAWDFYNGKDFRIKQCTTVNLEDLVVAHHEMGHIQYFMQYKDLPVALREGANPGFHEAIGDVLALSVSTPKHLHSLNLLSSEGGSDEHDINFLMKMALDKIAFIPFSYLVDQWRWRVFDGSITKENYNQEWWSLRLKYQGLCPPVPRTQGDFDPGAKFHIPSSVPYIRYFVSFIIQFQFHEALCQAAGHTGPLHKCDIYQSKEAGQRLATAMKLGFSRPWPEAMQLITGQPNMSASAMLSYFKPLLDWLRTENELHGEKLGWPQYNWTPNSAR

Regarding `CC(=O)N[C@@H](Cc1ccccc1)C(=O)SC[C@@H](C)C(=O)N1CCC[C@H]1C(=O)O` [N^α -[3-(N^α -acetyl-L-phenylalanylthio)-2-D-methylpropanoyl]-L-proline], the IC50 at human urinary ACE came to 26 nM.

As to `C[C@H](NC(=O)[C@H](Cc1c[nH]c2ccccc12)NC(=O)[C@H](CCCCN)NC(=O)[C@@H]1CCC(=O)N1)C(=O)N1CCC[C@H]1C(=O)O` [BPP5a] ([pGlu]KWAP-OH), the “Km relative to angiotensin I” value in the test with ACE is listed as “lower Km than angiotensin I”.

For RPPGFSPFR [bradykinin], the “Km relative to angiotensin I” value with ACE is on record as “lower Km than angiotensin I”.
